Experimental data as given in patent US9353104B2, “Substituted pyridizinone derivatives as PDE10 inhibitors” (priority 2013, dated 2016).

Target: human PDE10A2 (Homo sapiens (Human), UniProt Q9Y233)
Experiment: PDE10 fluorescence polarization (IMAP FP) inhibition assay
Format: biochemical
Conditions: human PDE10A2 lysate, FAM-labeled cAMP 50 nM, room temperature; read-out: PDE10A Ki
Description: The activity of the compounds in accordance with the present invention as PDE10 inhibitors may be readily determined without undue experimentation using a fluorescence polarization (FP) methodology that is well known in the art (Huang, W., et al., J. Biomol Screen, 2002, 7: 215). […] In a typical experiment the PDE10 inhibitory activity of the compounds of the present invention was determined in accordance with the following experimental method. PDE10A2 was amplified from human fetal brain cDNA (Clontech, Mountain View, Calif.) using a forward primer corresponding to nucleotides 56-77 of human PDE10A2 (Accession No. AF127480, Genbank Identifier 4894716), containing a Kozak consensus sequence, and a reverse primer corresponding to nucleotides 2406-2413 of human PDE10A2 (Accession No. AF127480, Genbank Identifier 4894716). Amplification with Easy-A polymerase (Stratagene, La Jolla, Calif.) was 95° C. for 2 minutes followed by thirty three cycles of 95° C. for 40 seconds, 55° C. for 30 seconds, and 72° C. for 2 minutes 48 seconds. Final extension was 72° C. for 7 minutes. The PCR product was TA cloned into pcDNA3.2-TOPO (Invitrogen, Carlsbad, Calif.) according to standard protocol. AD293 cells with 70-80% confluency were transiently transfected with human PDE10A2/pcDNA3.2-TOPO using Lipofectamine 2000 according to manufacturer specifications (Invitrogen, Carlsbad, Calif.). Cells were harvested 48 hours post-transfection and lysed by sonication (setting 3, 10×5 sec pulses) in a buffer containing 20 mM HEPES, 1 mM EDTA and protease inhibitor cocktail (Roche). Lysate was collected by centrifugation at 75,000×g for 20 minutes. Supernatant containing the cytoplasmic fraction was used for evaluation of PDE10A2 activity. The fluorescence polarization assay for cyclic nucleotide phosphodiesterases was performed using an IMAP® FP kit supplied by Molecular Devices, Sunnyvale, Calif. (product #R8139). IMAP® technology has been applied previously to phosphodiesterase assays (Huang, W., et al., J. Biomol Screen, 2002, 7: 215). Assays were performed at room temperature in 384-well microtiter plates with an incubation volume of 20.2 μL. Solutions of test compounds were prepared in DMSO and serially diluted with DMSO to yield 8 μL of each of 10 solutions differing by 3-fold in concentration, at 32 serial dilutions per plate. 100% inhibition is determined using a known PDE10 inhibitor, which can be any compound that is present at 5,000 times its Ki value in the assay described as follows, such as papaverine (see Siuciak, et al. Neuropharmacology (2006) 51:386-396; Becker, et al. Behav Brain Res (2008) 186(2):155-60; Threlfell, et al., J Pharmacol Exp Ther (2009) 328(3):785-795), 2-{4-[pyridin-4-yl-1-(2,2,2-trifluoroethyl)-1H-pyrazol-3-yl]phenoxymethyl}quinoline succinic acid or 2-[4-(1-methyl-4-pyridin-4-yl-1H-pyrazol-3-yl)-phenoxymethyl]quinoline succinic acid (see Schmidt, et al. J Pharmacol Exp Ther (2008) 325:681-690; Threlfell, et al., J Pharmacol Exp Ther (2009) 328(3): 785-795). 0% of inhibition is determined by using DMSO (1% final concentrations).
A Labcyte Echo 555 (Labcyte, Sunnyvale, Calif.) is used to dispense 200 nL from each well of the titration plate to the 384 well assay plate. A solution of enzyme (1/1600 dilution from aliquots; sufficient to produce 20% substrate conversion) and a separate solution of FAM-labeled cAMP PDE from Molecular Devices (product #R7506), at a final concentration of 50 nM are made in the assay buffer (10 mM Tris HCl, pH 7.2, 10 mM MgCl2, 0.05% NaN3 0.01% Tween-20, and 1 mM DTT). The enzyme and the substrate are then added to the assay plates in two consecutive additions of 10 μL, and then shaken to mix. The reaction is allowed to proceed at room temperature for 30 minutes. A binding solution is then made from the kit components, comprised of 80% Solution A, 20% Solution B and binding reagent at a volume of 1/600 the total binding solution.

Sequence of human PDE10A2 (Q9Y233 267-1055): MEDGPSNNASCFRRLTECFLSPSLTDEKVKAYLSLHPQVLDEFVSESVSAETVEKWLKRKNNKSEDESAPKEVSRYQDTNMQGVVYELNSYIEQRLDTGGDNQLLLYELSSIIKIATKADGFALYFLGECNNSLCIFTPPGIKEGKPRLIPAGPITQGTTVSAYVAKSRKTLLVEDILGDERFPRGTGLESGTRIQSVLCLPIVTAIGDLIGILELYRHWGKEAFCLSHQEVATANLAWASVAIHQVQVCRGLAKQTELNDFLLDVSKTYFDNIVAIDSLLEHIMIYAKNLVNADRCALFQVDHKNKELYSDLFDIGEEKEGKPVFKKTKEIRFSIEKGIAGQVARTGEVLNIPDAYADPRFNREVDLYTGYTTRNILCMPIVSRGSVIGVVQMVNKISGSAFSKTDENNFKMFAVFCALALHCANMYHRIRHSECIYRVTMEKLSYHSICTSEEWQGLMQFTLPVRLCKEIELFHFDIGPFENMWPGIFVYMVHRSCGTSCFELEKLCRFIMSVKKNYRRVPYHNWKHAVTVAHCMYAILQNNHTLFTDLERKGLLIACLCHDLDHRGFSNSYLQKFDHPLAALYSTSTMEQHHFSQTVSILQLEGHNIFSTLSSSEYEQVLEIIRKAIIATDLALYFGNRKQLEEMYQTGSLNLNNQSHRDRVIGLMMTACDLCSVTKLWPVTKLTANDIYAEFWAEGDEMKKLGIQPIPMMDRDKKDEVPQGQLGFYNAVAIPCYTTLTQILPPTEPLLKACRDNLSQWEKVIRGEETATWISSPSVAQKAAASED

| Compound | Ki [nM] |
| --- | --- |
| 6-(((1S,2S)-2-(5- methoxypyridin-2- yl)cyclopropyl)methoxy)- 2-methyl-4-(((2-methyl- thiazol-4- yl)methyl)amino-)- pyridazin-3(2H)-one [Example 49] | 16.6 |
| Cc1ccc([C@H]2C[C@@H]2COc2cc(NCc3nnc(C)s3)c(=O)n(C)n2)nc1 [Example 1, 2-methyl-4-((5-methyl-1,3,4-thiadiazol-2-yl)methylamino)-6-(((1S,2S)-2-(5-methylpyridin-2-yl)cyclopropyl)methoxy)pyridazin-3(2H)-one] | 0.013 |
| Cc1ncc(CNc2cc(OC[C@H]3C[C@@H]3c3ccn(C)n3)nn(C)c2=O)s1 [Example 2, 2-methyl-6-(((1S,2S)-2-(1-methyl-1H-pyrazol-3-yl)cyclopropyl)methoxy)-4-((2-methylthiazol-5-yl)methylamino)pyridazin-3(2H)-one] | 0.089 |
| COc1ccc([C@H]2C[C@@H]2COc2cc(NCc3nnc(C)s3)c(=O)n(C)n2)nc1 [Example 4, 6-(((1S,2S)-2-(5-methoxy-pyridin-2-yl)cyclopropyl-)-methoxy)-2-methyl-4-((5-methyl-1,3,4-thiadiazol-2-yl)methylamino)pyridazin-3(2H)-one] | 0.015 |
| Cc1nnc(CNc2cc(OC[C@H]3C[C@@H]3c3ccc(OC(F)F)cn3)nn(C)c2=O)s1 [Example 5, 6-(((1S,2S)-2-(5-(difluoromethoxy)pyridin-2-yl)cyclopropyl)methoxy-)-2-methyl-4-((5-methyl-1,3,4-thiadiazol-2-yl)-methylamino)pyridazin-3(2H)-one] | 0.157 |
| Cc1nnc(CNc2cc(OC[C@H]3C[C@@H]3c3ccc(F)cn3)nn(C)c2=O)s1 [Example 7, 6-(((1S,2S)-2-(5-fluoropyridin-2-yl)cyclo-propyl)methoxy)-2-methyl-4-((5-methyl-1,3,4-thiadiazol-2-yl)methyl-amino)pyridazin-3(2H)one] | 0.535 |
| COc1ccc(CNc2cc(OC[C@H]3C[C@@H]3c3ccc(C)cn3)nn(C)c2=O)cc1 [Example 8, 4-(4-methoxybenzylamino)-2-methyl-6-(((1S,2S)-2-(5-methylpyridin-2-yl)cyclopropyl)methoxy)-pyridazin-3(2H)-one] | 0.074 |
| Cc1ccc(CNc2cc(OC[C@H]3C[C@@H]3c3ccc(C)cn3)nn(C)c2=O)nc1 [Example 9, 2-methyl-6-(((1S,2S)-2-(5-methylpyridin-2-yl)cyclopropyl)methoxy)-4-((5-methylpyridin-2-yl)methylamino)pyridazin-3(2H)-one] | 0.051 |
| Cc1ccc([C@H]2C[C@@H]2COc2cc(NCc3cnn(C)c3)c(=O)n(C)n2)nc1 [Example 10, 2-methyl-4-((1-methyl-1H-pyrazol-4-yl)methylamino)-6-(((1S,2S)-2-(5-methylpyridin-2-yl)cyclopropyl)methoxy)-pyridazin-3(2H)-one] | 0.072 |
| Cc1ccc([C@H]2C[C@@H]2COc2cc(NCc3ccc(C)nc3)c(=O)n(C)n2)nc1 [Example 11, 2-methyl-6-(((1S,2S)-2-(5-methylpyridin-2-yl)cyclopropyl)methoxy)-4-((6-methylpyridin-3-yl)methylamino)pyridazin-3(2H)-one] | 0.121 |
| Cc1ccc([C@H]2C[C@@H]2COc2cc(NCc3nc(C)cs3)c(=O)n(C)n2)nc1 [Example 12, 2-methyl-6-(((1S,2S)-2-(5-methylpyridin-2-yl)cyclo-propyl)methoxy)-4-((4-methylthiazol-2-yl)methyl-amino)pyridazin-3(2H)one] | 9.89 |
| Cc1ccc([C@H]2C[C@@H]2COc2cc(NCc3cnc(C)s3)c(=O)n(C)n2)nc1 [Example 13, 2-methyl-6-(((1S,2S)-2-(5-methylpyridin-2-yl)cyclopropyl)methoxy)-4-((2-methylthiazol-5-yl)methylamino)pyridazin-3(2H)-one] | 0.011 |
| Cc1ccc([C@H]2C[C@@H]2COc2cc(NCc3cc(C)nn3C)c(=O)n(C)n2)nc1 [Example 14, 4-((1,3-dimethyl-1H-pyrazol-5-yl)methylamino-)-2-methyl-6-(((1S,2S)-2-(5-methylpyridin-2-yl)cyclopropyl)methoxy)-pyridazin-3(2H)-one] | 0.003 |
| COc1ccc(CNc2cc(OC[C@H]3C[C@@H]3c3ccc(F)cn3)nn(C)c2=O)cc1 [Example 15, 6-(((1S,2S)-2-(5-fluoro-pyridin-2-yl)-cyclopropyl-)-methoxy)-4-(4-methoxy-benzylamino)-2-methyl-pyridazin-3(2H)-one] | 1.29 |
| Cc1ccc(CNc2cc(OC[C@H]3C[C@@H]3c3ccc(F)cn3)nn(C)c2=O)nc1 [Example 16, 6-(((1S,2S)-2-(5-fluoropyridin-2-yl)cyclopropyl)methoxy)-2-methyl-4-((5-methylpyridin-2-yl)methylamino)pyridazin-3(2H)-one] | 0.782 |
| COc1ccc(CNc2cc(OC[C@H]3C[C@@H]3c3ccn(C)n3)nn(C)c2=O)cc1 [Example 17, 4-(4-methoxybenzylamino)-2-methyl-6-(((1S,2S)-2-(1-methyl-1H-pyrazol-3-yl)cyclopropyl)methoxy)-pyridazin-3(2H)-one] | 0.502 |
| Cc1cc(CNc2cc(OC[C@H]3C[C@@H]3c3ccc(F)cn3)nn(C)c2=O)n(C)n1 [Example 18] | 0.099 |
| Cn1cc(CNc2cc(OC[C@H]3C[C@@H]3c3ccc(F)cn3)nn(C)c2=O)cn1 [Example 19, 6-(((1S,2S)-2-(5-fluoropyridin-2-yl)cyclo-propyl)methoxy)-2-methyl-4-((1-methyl-1H-pyrazol-4-yl)methylamino-)-pyridazin-3(2H)-one] | 1.26 |
| Cc1ccc(CNc2cc(OC[C@H]3C[C@@H]3c3ccn(C)n3)nn(C)c2=O)cn1 [Example 20, 2-methyl-6-(((1S,2S)-2-(1-methyl-1H-pyrazol-3-yl)cyclopropyl)methoxy)-4-((6-methylpyridin-3-yl)methylamino)pyridazin-3(2H)-one] | 0.806 |
| Cc1cc(CNc2cc(OC[C@H]3C[C@@H]3c3ccn(C)n3)nn(C)c2=O)n(C)n1 [Example 21, 4-((1,3-dimethyl-1H-pyrazol-5-yl)methylamino)-2-methyl-6-(((1S,2S)-2-(1-methyl-1H-pyrazol-3-yl)cyclopropyl)methoxy)-pyridazin-3(2H)-one] | 0.044 |
| Cc1ncc(CNc2cc(OC[C@H]3C[C@@H]3c3ccc(F)cn3)nn(C)c2=O)s1 [Example 22, 6-(((1S,2S)-2-(5-fluoropyridin-2-yl)cyclopropyl)methoxy)-2-methyl-4-((2-methylthiazol-5-yl)methylamino)pyridazin-3(2H)-one] | 0.175 |
| Cn1cc(CNc2cc(OC[C@H]3C[C@@H]3c3ccn(C)n3)nn(C)c2=O)cn1 [Example 23, 2-methyl-6-(((1S,2S)-2-(1-methyl-1H-pyrazol-3-yl)cyclopropyl)methoxy)-4-((1-methyl-1H-pyrazol-4-yl)methylamino)-pyridazin-3(2H)-one] | 0.478 |
| Cc1nnc(CNc2cc(OC[C@H]3C[C@@H]3c3ccc(Cl)cn3)nn(C)c2=O)s1 [Example 25, 6-(((1S,2S)-2-(5-chloropyridin-2-yl)cyclopropyl)methoxy)-2-methyl-4-((5-methyl-1,3,4-thiadiazol-2-yl)methylamino)pyridazin-3(2H)-one] | 0.0819 |
